Measurements taken from patent US10632106B2, “Methods of cancer treatment with 2-(1′H-Indole-3′-carbonyl)-thiazole-4-carboxylic acid methyl ester” (Ariagen, Inc., priority 2009, dated 2020).

What was measured:
[1] = system: Murine Lewis lung cancer cell line LLC tumors; assay: Syngeneic murine Lewis lung cancer (LLC) model in C57BL/6 mice; assay type: in vivo; settings: for TGI (Tumor Growth Inhibition): TGI=ΔT/ΔC×100%
Experimental: All the procedures related to animal handling, care, and the treatment in the study were performed following guidelines approved by an Institutional Animal Care and Use Committee (IACUC) of Crown Bioscience, Inc. (Santa Clara, Calif., USA, a contract research organization we hired) based on the guidance of the Association for Assessment and Accreditation of Laboratory Animal Care (AAALAC). Animals were checked for any effects of tumor growth and drug treatment on normal behavior such as mobility, food and water consumption, body weight gain/loss (gross body weights were measured twice weekly), eye/hair matting, and any other abnormal effect. Death and observed clinical signs were recorded on the basis of the number of animals within each group. Individual animals with a tumor volume exceeding 3,000 mm^3 or animals of a group with a mean tumor volume exceeding 2,000 mm^3 were euthanized. In addition, animals showing signs of severe distress and/or pain, dropping body weight more than 20% from that at the start of treatment, or losing the capability of accessing adequate food or water were humanely sacrificed.
Tumor volume was measured twice weekly in two dimensions using a caliper and the volume was calculated with a formula of: V=0.5 a×b^2, where a and b are the long and short diameter (in mm) of a tumor, respectively. The tumor volume was then used for calculations of both TGI (Tumor Growth Inhibition) and TGD (Tumor Growth Delay). The TGI was determined by: TGI=ΔT/ΔC×100%, where ΔT was a difference between the mean tumor volume at a specified day of observation and that at the day treatment starts (day 1) for a drug treated group whereas ΔC was the same difference measured for the control group. The TGD was calculated as: TGD=T−C, where T was the time (in days) required for tumors in a drug treated group to reach a predetermined mean tumor volume and C the time (in days) in the control group to reach the same volume. A tumor weight was derived by equating 1,000 mm^3 in volume to 1,000 mg in weight. A net body weight was then derived by subtracting a tumor weight from a corresponding gross body weight with the tumor.
Summary statistics, including mean and the standard error of the mean (SEM), are provided for the tumor volume of each group at each time point. Statistical analysis of difference in tumor volume among groups was conducted on a data set either at the best therapeutic time point or at the final dosing day as indicated. The tumor volume data were log-transformed and evaluated using a one-way ANOVA followed by Tukey's test when significance was observed. All data were analyzed using SPSS 16.0 and p<0.05 was considered to be statistically significant.
Murine Lewis lung cancer cell line LLC (ATCC) was cultured as described for LNCaP in Example 1 except DMEM, instead of RPMI-1640, medium being used. Each female C57BL/6 mice, 6 to 8 weeks of age, was inoculated with 3×10^5 LLC cells in 0.1 ml of PBS for tumor development. ITE treatment was started when a mean tumor volume reached 80 to 120 mm^3. All the other materials and methodologies were the same as that described in Example 1.

[2] = system: Siha (human cervical cancer) xenografts; assay: Siha xenograft growth inhibition; assay type: in vivo; settings: ITE 100-200 mg/kg i.p. once daily
Experimental: All the procedures related to animal handling, care, and the treatment in the study were performed following guidelines of KeyGen Biotechn Co., Ltd. (Nanjing, China), a contract research organization we hired, based on the guidance of the Association for Assessment and Accreditation of Laboratory Animal Care (AAALAC). Animals were checked for any effects of tumor growth and drug treatment on normal behavior such as mobility, food and water consumption, body weight gain/loss (bodyweights were measured every two days), eye/hair matting, and any other abnormal effect. Death and observed clinical signs were recorded. Individual animals with a tumor volume exceeding 3,000 mm^3 or animals of a group with a mean tumor volume exceeding 2,000 mm^3 were euthanized. In addition, animals showing signs of severe distress and/or pain or losing the capability of accessing adequate food or water were humanely sacrificed.
Cell lines HCT116, Siha, MFC were cultured in DMEM medium (high glucose) supplemented with 10% fetal bovine serum (FBS), SW116 and T24 in RPMI-1640 medium with 10% FBS, M14 and A375 in DMEM medium (high glucose) with 10% calf serum (CS), SGC7901 and Ketr-3 in RPMI-1640 medium with 10% CS, and CFPAC-1 in IMDM medium with 10% FBS. All of the cells were cultured, in the presence of 100 U/ml penicillin and 100 μg/ml streptomycin, at 37° C. in an atmosphere of 5% CO2 in air. […] The cells growing in an exponential phase were harvested and counted for tumor inoculation. Cell lines 5180 and U14 were maintained in ascites (peritoneal cavity fluid) of mice and were harvested and counted for tumor inoculation. […]
Tumor volume was measured every two days in two dimensions using a caliper and the volume was calculated with a formula of: V=0.5 a×b^2, where a and b are the long and short diameter (in mm) of a tumor, respectively. […] The TGD was calculated as: TGD=T−C, where T was the time (in days) required for tumors in a drug treated group to reach a predetermined mean tumor volume and C the time (in days) in the control group to reach the same volume. […]

For `COC(=O)c1csc(C(=O)c2c[nH]c3ccccc23)n1` [ITE, 2-(1′H-indole-3′-carbonyl)-thiazole-4-carboxylic acid methyl ester], the “TGI (Tumor Growth Inhibition)” value ([1]; 20 mg/kg b.w. i.p. once daily, day 15) was 65%, the “tolerability by body weight change monitoring” value ([1]; 80 mg/kg b.w. i.p. once daily) was “tolerated well” and the “tumor elimination in one mouse of the ITE group (mouse No. 33)” value ([1]; 80 mg/kg b.w. i.p. once daily for 28 days, stayed tumor free for one more month of observation) was “its tumor was no longer palpable at day 13”. For the same molecule, the “TGD (Tumor Growth Delay)” value ([1]; 80 mg/kg b.w. i.p. once daily, at a tumor volume of 1000 mm^3) was 7 days, the “TGI (Tumor Growth Inhibition)” value ([1]; 80 mg/kg b.w. i.p. once daily, day 20) was 42% and the TGD ([2]; TGD at Vol. 1,000) was 7 days. For the same molecule, the “TGI (%)” value ([2]; TGI at day 24, TGI=(1−ΔT/ΔC)×100%) was 53% and the “Weight Loss” value ([2]; end of therapy relative to beginning) was 19%.
